Data taken from patent publication US9073982B2, “Targets for regulation of angiogenesis” (The University of North Carolina at Chapel Hill, priority 2008, dated 2015).

What was measured:
[1] = system: HCAEC; assay: Tube formation assay on HCAEC; assay type: cell-based, human; conditions: Jak3 20 nM-200 pM, 8 hours
Procedure: ECMATRIX (Chemicon, Temecula, Calif.) was thawed, diluted, and solidified in a 96 well plate according to the manufacturer's instructions. HCAEC were seeded onto the matrix at 2,000 cells/well in 150 μl of EGM-2 with 5% FBS without BulletKit growth supplements. A 20 nM-200 pM dose curve of recombinant human Jak3 was added to the cells and the plates were returned to 37° C., 5% CO2 for 8 hours. Each concentration was performed in triplicate and the experiment was repeated three times with similar results. Wells were evaluated under a Nikon Eclipse TS100 microscope at 4× magnification and pictures were taken with a Nikon CoolPix 995 digital camera. Angiogenesis was quantified by counting branch points in the resulting image.
The role of STAT3 activation in Jak3-mediated tube formation was evaluated using a small peptide inhibitor of phosphorylated STAT3 (P-STAT3). ECMATRIX was solidified in wells of a 96 well plate. HCAEC were seeded onto the matrix at 2,000 cells/well in 150 μl of EGM-2 with 5% FBS without additional BulletKit growth supplements. Wells were treated in triplicate with: PBS alone, PBS+100 μM P-STAT3 inhibitor, 20 nM Jak3, or 20 nM Jak3+100 μM P-STAT3 inhibitor. Wells were photographed at 8 hours and tube formation was quantified by counting branch points in the resulting image.

[2] = system: HCAEC; assay: Endothelial cell proliferation assay (MTT); assay type: cell-based, human; conditions: Jak3, 48 hours
Procedure: HCAEC were seeded on a 96 well plate at a concentration of 2000 cells/well and allowed to proliferate for 24 hrs in EGM-2 with BulletKit growth supplements. The cells were then quiesced in EGM-2 with 0.1% FBS without BulletKit growth supplements for 18 hours. Media was replaced with fresh EGM-2 with BulletKit growth supplements and the cells were treated in triplicate with: PBS alone; recombinant murine VEGF (60 ng/mL); or Jak3 (at a concentration of 200 nM-200 pM). After 48 h, 10 μl of the colorimetric compound 3-(4,5-dimethylthiazol-2-yl)-2,5-diphenyl tetrazolium bromide (MTT) (5 mg/mL) was added to each well and allowed to incubate for 4 h at 37° C. All but 25 μl of media in each well was removed and 50 μl dimethyl sulfoxide (DMSO) was added. Following a 10 min incubation at 37° C., the A540 was measured using a microplate reader. A540 was converted to number of cells based on a standard curved created by seeding a 96-well plate with known concentrations of cells, as determined by hemocytometry, and measuring their A540 after 4 hrs incubation with MTT.

[3] = system: Human coronary artery endothelial cells (HCAEC); assay: Hypoxia-induced endothelial cell apoptosis assay (caspase 3); assay type: cell-based; conditions: Jak3 20 nM-200 pM, 36 hours hypoxia
Procedure: Human coronary artery endothelial cells (HCAEC) were used for apoptosis assays because apoptosis could not be induced in the MEC cells. HCAECs were grown in 10-cm dishes (Becton Dickinson, Franklin Lakes, N.J.) with endothelial cell basal medium-2 (EGM-2) BulletKit media (Clonetics, San Diego, Calif.) until 80% confluent. Medium was then replaced with optimal medium according to different assays. The hypoxic condition was created by incubating HCAECs in EGM-2 media without BulletKit growth factors at 37° C. in a hypoxia chamber with an atmosphere of 5% CO2/95% N2. The oxygen level in the chamber was controlled to 1.0%. Apoptosis was determined by measuring the activity of cleaved caspase 3 by using a caspase-specific fluorogenic substrate according to the protocol for the Caspase 3 Assay Kit (Sigma). HCAECs were lysed after treatment with concentrations of SFRP2 (70 pM and 700 pM) for 36 h under hypoxia. […] The enzyme-catalyzed release of 7-amino-4-methyl coumarin (AMC) was measured by a fluorescence microplate reader.
HCAEC were seeded onto a 96 well plate at 2,000 cells/well in EGM-2 with BulletKit growth supplements. […] Apoptosis was determined by measuring the activity of cleaved caspase 3 by using a caspase-specific fluorogenic substrate according to the protocol for the Apo-ONE® Homogeneous Caspase-3/7 Assay (Promega, Madison, Wis.). […]

[4] = system: HCAEC; assay: Scratch wound assay on HCAEC; assay type: cell-based, human; conditions: Jak3 20 nM-200 pM
Procedure: HCAEC were plated at 10,000 cells/well onto a 96 well plate and allowed to become confluent in EGM-2 with BulletKit growth supplements. The cells were quiesced in EGM-2 with 0.1% FBS without BulletKit growth supplements for 18 hours. The wound was formed using a 1 ml pipette tip. A 20 nM-200 pM dose curve of recombinant human Jak3 (Millipore, Temecula, Calif.) was added to the cells. Each concentration was performed in triplicate and the experiment was repeated three times with similar results. Migration distance was measured at 12 hours and then every 4 hours until wound closure in all wells. Data were recorded as percent of wound closed at each time point.

[5] = system: chick chorioallantoic membrane; assay: Chick chorioallantoic membrane (CAM) assay; assay type: in vivo, chicken; conditions: 100 ng per disk, evaluated day 3 after disk placement
Procedure: On day 4, the eggs were cracked into sterile Petri dishes and incubated at 99° F. in 3% CO2, 65% humidity. For application of drug onto the CAM, Whatman grade 1 filter paper was cut into circles with a 6 mm diameter paper punch and autoclaved. To decrease inflammatory effects of the disk, the discs were soaked in 1 ml of 3.0 mg/ml cortisone acetate in absolute ETOH and air dried for 60 min in a laminar flow hood. On day 8, 5 disks per egg were placed on the outer third of the CAM, 2-3 mm from a vessel. Control PBS 7 μl was added to the discs for the control CAMs, and SFRP2 100 ng/7 μl PBS was added to the disks for the treated CAMs (n=5 control disks and 5 SFRP2-treated disks). The CAMs were evaluated under a stereomicroscope on day 3 after disk placement. Pictures were taken with a Wild M-4 70 Macrosystem, and angiogenesis was quantified using Metamorph Software with an angiogenesis module.
Fertilized chickens eggs (NC State University Chicken Research Faint) were incubated at 100.4° F. in an egg turner (Model#1588 Genesis Hova-Bator, GQF Mfg. Co., Inc.) for 3 days. […] CAMs were evaluated under a stereomicroscope on day 3 after disk placement. Pictures were taken with a Wild M-4 70 Macrosystem and angiogenesis was quantified using Metamorph Software with an angiogenesis module.

Jak3: recombinant human Jak3 (Millipore)
endothelial tube formation (branch points) [1]: induced by Jak3 in a concentration-dependent manner
cell proliferation [2]: increased cell proliferation
hypoxia induced endothelial cell apoptosis (caspase 3 activity) [3]: protected against hypoxia induced endothelial cell apoptosis
endothelial cell migration (percent of wound closed) [4]: increased endothelial cell migration
angiogenesis on the CAM (branch points, segments, tube area, tube length) [5]: induced angiogenesis on the CAM
